From patent US10435376B2, “Derivatives of 1H-imidazole-4,5-dicarboxamide and use thereof in preparation of anticoccidial drugs” (GUANGZHOU INSIGHTER BIOTECHNOLOGY CO., LTD., priority 2015, dated 2019)

Experiments:
Format in all cases: in vivo
Eimeria tenella [1] = assay: Inhibitory effects of the derivatives of different dosages on Eimeria tenella of chicken; design: key to Score (bloody stool score): 0 = no bloody stool to 4 = bloody stool over 75%; details: broilers, E. tenella; for Score (bloody stool score): 5 days after inoculation
Protocol: (§1) Bloody stool score: 0, no bloody stool was observed; 1, bloody stool below 25%; 2, 25 to 50% of bloody stool; 3, 50 to 75% of bloody stool; and 4, bloody stool over 75%.
(§2) Relative weight gain (%): The broilers were weighed at the beginning and the end of the trial to calculate the average weight gain and relative weigh gain. Relative weight gain=(average weight gain of each group/average weight gain of group 1)×100%.
(§3) Deaths of the broilers: Necropsy was performed and the amount of dead broilers in each group was recorded to calculate the survival rate. Survival rate=(total amount of the broilers in each group−amount of deaths caused by coccidial infection)/total amount of the broilers in each group×100%.
(§4) One-day-old yellow-feather fast-growing broilers were raised in a coccidia-free environment, and divided into groups for trial at the age of 18 days when no coccidian oocysts were detected by microscopy in their faeceas. Weak or overweight broilers were removed, and healthy broilers were divided into 16 groups with 50 broilers in each group and weight difference between each two broilers was below 20 g. Groups 1 and 2 were respectively a control group that the broilers were neither infected nor treated, and a control group that the broilers were infected but not treated. Groups 3 to 16 were respectively administrated with different kinds or different dosages of derivatives. The broilers were given ad libitum access to feed and water when the feed was added with different medicines according to Table 2 at the day the broilers were divided. 24 Hours after the trial began, 250,000 sporulated Eimeria tenella oocysts were inoculated via an oral gavage into the crop of every broiler in each group except group 1. Bloody stool score was measured 5 days after the inoculation and the trial was ended 7 days after the inoculation. Relative weight gain (%), survival rate (%) and the bloody stool score were evaluated (according to embodiment 2).

Eimeria tenella [2] = assay: Inhibitory effects of the derivatives on Eimeria tenella of chicken (60 ppm in feed); details: for anticoccidial activity in view of survival rate, bloody stool score and relative weight gain: 60 ppm, E. tenella; for responders at 60 ppm, 60 µg/mL / response vs control in vivo at 60 ppm, 60 µg/mL: Eimeria tenella, 168 h; for responders at 60 ppm, 60 µg/mL / response vs control in vivo at 60 ppm, 60 µg/mL / Score (bloody stool score): broilers, 60 ppm in feed, 250,000 E. tenella oocysts; for responders at 60 ppm, 60 µg/mL: 7 days after inoculation, read-out: Survival rate (%); for response vs control in vivo at 60 ppm, 60 µg/mL: relative to group 1 (not infected, not treated), read-out: Relative weight gain (%); for Score (bloody stool score): 5 days after inoculation
Source text: as §4, with “into 30” for “into 16”, “to 30” for “to 16”, “different” for “different kinds or different dosages of”, “Table 1” for “Table 2”, “were evaluated.” for “were evaluated (according to embodiment 2).”
as §1, §2, §3

Eimeria necatrix = assay: Inhibitory effects of the derivatives on Eimeria necatrix of chicken; details: for anticoccidial activity in view of survival rate, bloody stool score and relative weight gain: 60 ppm, E. necatrix; for responders at 60 ppm, 60 µg/mL / response vs control in vivo at 60 ppm, 60 µg/mL: Eimeria necatrix, 168 h; for responders at 60 ppm, 60 µg/mL: read-out: Survival rate (%); for response vs control in vivo at 60 ppm, 60 µg/mL: feed or water, read-out: Relative weight gain (%); for response vs control in vivo at 60 ppm, 60 µg/mL / Score (bloody stool score): broilers, 60 ppm in feed, 100,000 E. necatrix oocysts; for Score (bloody stool score): 5 days after inoculation
Protocol: as §1, §2, §3
as §4, with “into 10” for “into 16”, “to 10” for “to 16”, “different” for “different kinds or different dosages of”, “Table 4” for “Table 2”, “began, 100,000” for “began, 250,000”, “Eimeria necatrix” for “Eimeria tenella”

Eimeria acervulina = assay: Inhibitory effects of the derivatives on Eimeria acervulina of chicken; details: for anticoccidial activity in view of survival rate, relative weight gain and feed conversion ratio: 60 ppm, E. acervulina; for responders at 60 ppm, 60 µg/mL / response vs control in vivo at 60 ppm, 60 µg/mL: Eimeria acervulina, 168 h; for responders at 60 ppm, 60 µg/mL / response vs control in vivo at 60 ppm, 60 µg/mL / Feed conversion ratio: broilers, 60 ppm in feed, 400,000 E. acervulina oocysts; for responders at 60 ppm, 60 µg/mL: 7 days after inoculation, read-out: Survival rate (%); for response vs control in vivo at 60 ppm, 60 µg/mL: feed or water, read-out: Relative weight gain (%)
Protocol: as §2, §3
One-day-old yellow-feather fast-growing broilers were raised in a coccidia-free environment, and divided into groups for trial at the age of 18 days when no coccidian oocysts were detected by microscopy in their faeceas. Weak or overweight broilers were removed, and healthy broilers were divided into 10 groups with 50 broilers in each group and weight difference between each two broilers was below 20 g. Groups 1 and 2 were respectively a control group that the broilers were neither infected nor treated, and a control group that the broilers were infected but not treated. Groups 3 to 10 were respectively administrated with different derivatives. The broilers were given ad libitum access to feed and water when the feed was added with different medicines according to Table 3 at the day the broilers were divided. 24 Hours after the trial began, 400,000 sporulated Eimeria acervulina oocysts were inoculated via an oral gavage into the crop of every broiler in each group except group 1. The trial was ended 7 days after the inoculation. Relative weight gain (%), survival rate (%) and feed conversion ratio were evaluated.

Compound	Relative weight gain (%) (Eimeria tenella [1]; 5 ppm in feed)	Survival rate (%) (Eimeria tenella [1]; 5 ppm in feed)	Score (bloody stool score) (Eimeria tenella [1]; 5 ppm in feed)	Relative weight gain (%) (Eimeria tenella [1]; 10 ppm in feed)	Survival rate (%) (Eimeria tenella [1]; 10 ppm in feed)	Score (bloody stool score) (Eimeria tenella [1]; 10 ppm in feed)	Relative weight gain (%) (Eimeria tenella [1]; 20 ppm in feed)	Survival rate (%) (Eimeria tenella [1]; 20 ppm in feed)	anticoccidial activity in view of survival rate, bloody stool score and relative weight gain (Eimeria tenella [2])	responders at 60 ppm, 60 µg/mL (Eimeria tenella [2]) [%]	response vs control in vivo at 60 ppm, 60 µg/mL (Eimeria tenella [2]) [%]	Score (bloody stool score) (Eimeria tenella [2])	anticoccidial activity in view of survival rate, bloody stool score and relative weight gain (Eimeria necatrix)	responders at 60 ppm, 60 µg/mL (Eimeria necatrix) [%]	response vs control in vivo at 60 ppm, 60 µg/mL (Eimeria necatrix) [%]	Score (bloody stool score) (Eimeria necatrix)	anticoccidial activity in view of survival rate, relative weight gain and feed conversion ratio (Eimeria acervulina)	responders at 60 ppm, 60 µg/mL (Eimeria acervulina) [%]	response vs control in vivo at 60 ppm, 60 µg/mL (Eimeria acervulina) [%]	Feed conversion ratio (Eimeria acervulina)	other results
NC(=O)c1ncn(Cc2c(F)cccc2Cl)c1C(N)=O [IST15031, 1-(2-chloro-6-fluorobenzyl)-1H-imidazole-4,5-dicarboxamide]	67.8	76	4 (bloody stool over 75%)	72.3	88	4 (bloody stool over 75%)	79.8	100	highest anticoccidial activities	100	95.8	1 (bloody stool below 25%)	highest anticoccidial activities	100	92.5	1 (bloody stool below 25%)	highest anticoccidial activities	100	94.8	2.179	Score (bloody stool score) (Eimeria tenella [1]; 20 ppm in feed): 2 (25 to 50% of bloody stool); Relative weight gain (%) (Eimeria tenella [1]; 50 ppm in feed): 90.5%; Survival rate (%) (Eimeria tenella [1]; 50 ppm in feed): 100%; Score (bloody stool score) (Eimeria tenella [1]; 50 ppm in feed): 1 (bloody stool below 25%); Relative weight gain (%) (Eimeria tenella [1]; 100 ppm in feed): 98.9%; Survival rate (%) (Eimeria tenella [1]; 100 ppm in feed): 100%; Score (bloody stool score) (Eimeria tenella [1]; 100 ppm in feed): 0; Relative weight gain (%) (Eimeria tenella [1]; 200 ppm in feed): 102.5%; Survival rate (%) (Eimeria tenella [1]; 200 ppm in feed): 100%; Score (bloody stool score) (Eimeria tenella [1]; 200 ppm in feed): 0; Relative weight gain (%) (Eimeria tenella [1]; 500 ppm in feed): 100.4%; Survival rate (%) (Eimeria tenella [1]; 500 ppm in feed): 100%; Score (bloody stool score) (Eimeria tenella [1]; 500 ppm in feed): 0
CCCn1cnc(C(N)=O)c1C(N)=O [IST15038, 1-propyl-1H-imidazole-4,5-dicarboxamide]										100	82.1	3 (50 to 75% of bloody stool)		100	79.5	2 (25 to 50% of bloody stool)		100	73.8	2.135	
NC(=O)c1ncn(Cc2ccccc2F)c1C(N)=O [IST15043, 1-(2-fluorobenzyl)-1H-imidazole-4,5-dicarboxamide]									highest anticoccidial activities	100	98.7	0	highest anticoccidial activities	100	102	0	highest anticoccidial activities	100	99.4	2.139	
NC(=O)c1ncn(Cc2ccc([N+](=O)[O-])cc2)c1C(N)=O [IST15045, 1-(4-nitrobenzyl)-1H-imidazole-4,5-dicarboxamide]									highest anticoccidial activities	100	104	0	highest anticoccidial activities	100	102	0	highest anticoccidial activities	100	98.7	2.158	
NC(=O)c1ncn(Cc2ccc(C(F)(F)F)cc2)c1C(N)=O [IST15051, 1-(4-(trifluromethyl)benzyl)-1H-imidazole-4,5-dicarboxamide]	80.4	96	4 (bloody stool over 75%)	88.6	100	2 (25 to 50% of bloody stool)	95.9	100	highest anticoccidial activities	100	101	0	highest anticoccidial activities	100	99.5	0	highest anticoccidial activities	100	102	2.109	Score (bloody stool score) (Eimeria tenella [1]; 20 ppm in feed): 0; Relative weight gain (%) (Eimeria tenella [1]; 50 ppm in feed): 98.7%; Survival rate (%) (Eimeria tenella [1]; 50 ppm in feed): 100%; Score (bloody stool score) (Eimeria tenella [1]; 50 ppm in feed): 0; Relative weight gain (%) (Eimeria tenella [1]; 100 ppm in feed): 101.2%; Survival rate (%) (Eimeria tenella [1]; 100 ppm in feed): 100%; Score (bloody stool score) (Eimeria tenella [1]; 100 ppm in feed): 0; Relative weight gain (%) (Eimeria tenella [1]; 200 ppm in feed): 99.4%; Survival rate (%) (Eimeria tenella [1]; 200 ppm in feed): 100%; Score (bloody stool score) (Eimeria tenella [1]; 200 ppm in feed): 0; Relative weight gain (%) (Eimeria tenella [1]; 500 ppm in feed): 103.6%; Survival rate (%) (Eimeria tenella [1]; 500 ppm in feed): 100%; Score (bloody stool score) (Eimeria tenella [1]; 500 ppm in feed): 0
